# Results as given in patent US5580860A, “Pharmaceutical composition containing 2-amino-6-chloropurine-9-β-D-2',3'-dideoxyribofuranoxside” (priority 1989, dated 1996).
# Columns and labels:
# [1] = system: cells; conditions: read-out: concentration range from which cytotoxicity appears; J. Biol. Chem., 263, 5870 (1988); cited from earlier work
# [2] = system: HIV; conditions: J. Biol. Chem., 263, 5870 (1988); cited from earlier work
# [3] = system: cells; conditions: J. Med. Chem., 32, 1135 (1989), cited from earlier work
# [4] = system: production of reverse transcriptase (HIV); conditions: J. Med. Chem., 32, 1135 (1989), cited from earlier work
# [5] = system: AIDS virus (HIV) in ATH8 cells; assay: Antivirus test (1), anti-HIV effect in ATH8 cells; assay type: cell-based; conditions: for IC100: read-out: complete inhibition concentration for HIV
# Description: (§1) Namely, after pretreatment beforehand with polybrene (made by Sigma Co.), 2×10^5 ATH 8 cells were exposed to AIDS virus (HIV) for 45 minutes to infect (the number of HIV was made so as to be 2000 per ATH8 cell). Successively, the infected cells were suspended into every 1 ml of respective media containing interleukin 2 (IL-2) and being added with anti-HIV agent in various concentrations and into 1 ml of medium containing IL-2 alone and not containing anti-HIV agent at any rate.
# (§2) These were cultured at 37° C. in a mixed gas comprising 5% carbon dioxide and 95% air.
# (§3) The cells for reference were similarly prepared except allowing to infect with AIDS virus (HIV).
# (§4) After 5 days, whole number of cells was counted by hemocytometer method based on the dyeing with trypan blue.
# [6] = system: p24 gag protein of HIV (H9 cells); assay: Antivirus test (2), expression of p24 gag protein in HIV-infected H9 cells; assay type: cell-based
# Description: Namely, HIV-infected H9 cells added with anti-HIV agent in various concentrations were cultured for 8 days and 9 days, respectively, to assay the rate (%) of the target H9 cells expressing p24 gag protein of HIV. Measurement was made by a murine monoclonal antibody (M26) method.
# [7] = system: ATH8 cells; assay: Cytotoxicity in the anti-HIV test (ATH8 cells); assay type: cell-based; conditions: in words
# Description: as §1, §2, §3, §4
# [8] = Cytotoxicity in the anti-HIV test (ATH8 cells); assay type: cell-based; conditions: human, ath8 cells; DMSO present (1% at 200 μM); attributed to influence of DMSO; read-out: concentration at which cytotoxicity appears
# Description: as §1, §2, §3, §4
# [9] = system: HIV; conditions: compared with AZT; cited from earlier work
# [10] = Lipophilicity test, partition coefficient by shake-flask method; assay type: physicochemical; conditions: n-octanol / phosphate buffer pH 7.4, shake-flask, HPLC
# Description: As a method for determining the extent of lipophilicity, it is a general rule to measure the partition coefficient (P) in water-n-octanol. Thus, the lipophilicity test of 2-amino-6-chloropurine-9-β-2',3'-dideoxyribofuranoside concerned with the invention was performed by the method of using partition coefficient P by shake-flask method (J. Pharm. Pharmacol., 39, 253 (1987)).
# Namely, n-octanol and phosphate buffer (pH 7.4) were transferred into a separatory funnel and shaken for 3 hours with a shaker, which was then allowed to stand for 12 hours to separate respectively. Into 50 ml of n-octanol-saturated buffer thus obtained was dissolved 1 mg of sample (dried for 12 hours at 50° C. in a vacuum dryer) and 0.5 ml of this solution were taken as a sample for quantitative determination. Remaining 49.5 ml of n-octanol-saturated buffer and 49.5 ml of buffer-saturated n-octanol were transferred into a separatory funnel.
# After shaking for 3 hours with a shaker, this was allowed to stand for 2 hours and then centrifuged (1500 rpm, 15 minutes). After gently removing the n-octanol layer, the sample for quantitative determination was taken.
# The partition coefficient P is defined as follows:
# Co: Concentration of sample in buffer before shaking
# Cw: Concentration of sample in buffer after shaking
# [11] = Human immunodeficiency virus 1, ATH-8, 120 h, ATH8 cells, 5 days
structure (smiles),measurement,setting,value
"Nc1nc(Br)nc2c1ncn2[C@H]1CC[C@@H](CO)O1 [2-bromo-2',3'-dideoxyadenosine]",MCC,[1],1 to 10 µM
same,concentration exhibiting HIV inhibition effect,[2],1 to 10 µM
"Nc1nc(Cl)nc2c1ncn2[C@H]1C=C[C@@H](CO)O1 [2-chloro-2',3'-didehydro-2',3'-dideoxyadenosine]",toxicity at a concentration over 20 μM,[3]; over 20 μM,the toxicity is so strong that the test cannot be performed
same,inhibition of the production of reverse transcriptase at 20 μM,[4]; 20 μM,75%
"Nc1nc(Cl)nc2c1ncn2[C@H]1CC[C@@H](CO)O1 [2-chloro-2',3'-dideoxyadenosine]",cytotoxicity at 100 μM,[3]; 100 μM,23%
same,MCC,[1],1 to 10 µM
same,anti-HIV effect at 2 μM,[4]; 2 μM,no effect at all
same,inhibition of the production of reverse transcriptase at 100 μM,[4]; 100 μM,97%
same,concentration exhibiting HIV inhibition effect,[2],1 to 10 µM
"Nc1nc(F)nc2c1ncn2[C@H]1CC[C@@H](CO)O1 [2-fluoro-2',3'-dideoxyadenosine]",MCC,[1],1 to 10 µM
same,concentration exhibiting HIV inhibition effect,[2],1 to 10 µM
"Nc1nc(Cl)c2ncn([C@H]3CC[C@@H](CO)O3)c2n1 [6-Cl-DDG, 2-amino-6-chloropurine-9-β-D-2',3'-dideoxyribofuranoside]",anti-HIV effect compared with DDG,"[5]; ATH8 cells, vs DDG",equal or higher anti-HIV effect compared with DDG
same,IC100,[5]; [11],5 µM
same,minimal effective concentration,"[5]; Human immunodeficiency virus 1, ATH-8, 120 h, ATH8 cells, 5 days, read-out: concentration exhibiting HIV inhibition effect",2 µM
same,anti-AIDS virus effect (anti-HIV effect),[5]; in words,high anti-AIDS virus effect (anti-HIV effect)
same,IC100,"[6]; Human immunodeficiency virus 1, 8th and 9th day, read-out: concentration almost completely inhibiting the expressing of p24",10 µM
same,minimal effective concentration,"[6]; Human immunodeficiency virus 1, 8th and 9th day, read-out: concentration exhibiting inhibition effect on the expressing of p24 antigen",3 µM
same,anti-HIV effect compared with DDG,[6]; vs DDG,equal or higher anti-HIV effect compared with DDG
same,cytotoxicity,[7],low cytotoxicity
same,MCC at 120 h,[8],> 200 µM
"Nc1ncnc2c1ncn2[C@H]1CC[C@@H](CO)O1 [DDA, 2',3'-dideoxyadenosine]",anti-HIV effect in vitro,[9],higher anti-HIV effect in vitro than that of AZT
"Nc1ccn([C@H]2CC[C@@H](CO)O2)c(=O)n1 [DDC, 2',3'-dideoxycytidine]",anti-HIV effect in vitro,[9],higher anti-HIV effect in vitro than that of AZT
"Nc1nc2c(ncn2[C@H]2CC[C@@H](CO)O2)c(=O)[nH]1 [DDG, 2'3'-dideoxyguanosine]",logD,[10],-1.06
same,IC100,[5]; [11],10 µM
"OC[C@@H]1CC[C@H](n2cnc3c(O)ncnc32)O1 [DDI, 2',3'-dideoxyinosine]",logD,[10],-1.22
same,anti-HIV effect in vitro,[9],higher anti-HIV effect in vitro than that of AZT
